Results on 4 compounds are retold here after EP4631938A1, “NITROGEN-CONTAINING HETEROCYCLE WITH SEROTONIN RECEPTOR-BINDING ACTIVITY AND CARBOCYCLIC DERIVATIVE” (Shionogi & Co., Ltd, priority 2022, dated 2024).

Some results are limits rather than exact numbers.

Test [1] deals with T1, human ether-a-go-go related gene (hERG) channel (Homo sapiens, UniProt Q12809).
T1 construct: expressed in transfected cells; host or cells: CHO cells
Put plainly: Test Example 3-2: hERG test (FluxORII thallium flux, FLIPR, 4000 cells/well). The class given is cell-based. The following applies: CHO cells expressing hERG channel, compound reacted for 10 minutes, 100% inhibition = E-4031 10.3 µmol/L. As for the experimental part:
For the purpose of evaluating risk of an electrocardiogram QT interval prolongation of the compound of the present invention, effects of the compound are studied by evaluating the activity of potassium channel using CHO cells expressing human ether-a-go-go related gene (hERG) channel.
Evaluation is performed using a FluxORII Green Potassium Ion Channel Assay kit (Invitrogen: Molecular Probes).
Cells (4000 cells/well/40 µL) are seeded in a 384 assay plate, and are incubated overnight (37°C, 5% CO2). After replacing the medium with a Wash buffer (lxHBSS, 20 mM HEPES) with a microplate washer, a fluorescent indicator is added to the medium and allowed to incubate (37°C, 5% CO2) for 1 hour for incorporation of the fluorescent indicator into cells.
A cell plate is placed on a cell-based kinetic assay system FLIPR (Molecular Devices, LLC.), and the compound is added to the cells so as to have a desired concentration and reacted for 10 minutes. When a mixed solution of potassium and thallium as a stimulator is added thereto, the potassium channel is opened, and thallium that flowed into the cells binds to the fluorescent indicator, so that the intracellular fluorescence signal increases, and the potassium channel current is detected as a fluorescence signal. […] Then, the inhibition rate is calculated from the signal intensity at each concentration. IC50 is calculated from the inhibition rate at each concentration.

The target of test [2] is T2, human recombinant 5-HT2C receptor (Homo sapiens, UniProt P28335).
T2 construct: expressed in transfected cells; host or cells: Jump-In HEK cells (membrane preparation)
T2 sequence (P28335 33-458): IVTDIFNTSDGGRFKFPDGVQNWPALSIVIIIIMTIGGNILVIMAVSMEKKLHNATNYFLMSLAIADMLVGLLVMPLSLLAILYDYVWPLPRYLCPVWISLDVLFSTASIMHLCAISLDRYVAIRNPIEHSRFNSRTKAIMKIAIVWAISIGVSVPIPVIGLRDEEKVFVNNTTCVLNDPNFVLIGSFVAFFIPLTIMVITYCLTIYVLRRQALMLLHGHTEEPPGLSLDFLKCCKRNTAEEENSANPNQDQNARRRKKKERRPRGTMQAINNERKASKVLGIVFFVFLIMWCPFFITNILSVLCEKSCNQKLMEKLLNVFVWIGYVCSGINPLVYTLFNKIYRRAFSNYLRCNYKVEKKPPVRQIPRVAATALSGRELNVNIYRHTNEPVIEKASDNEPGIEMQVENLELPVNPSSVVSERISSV
Put plainly: Test Example 2-2: 5-HT2C receptor binding inhibition test ([3H]-Mesulergine; non-specific ligand Ketanserin). The note with it: non-specific binding with 500 µmol/L Ketanserin, 37°C, 2 hours. Put shortly:
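Membranes expressing the receptor were incubated with compound and [3H]-Mesulergine for 2 h at 37 °C, then filtered and counted by scintillation. Non-specific binding was defined with 500 µmol/L Ketanserin. Percent inhibition versus vehicle gave dose-response curves, from which Ki was derived using a Kd from Scatchard saturation analysis.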

T1 sequence (Q12809 whole entry): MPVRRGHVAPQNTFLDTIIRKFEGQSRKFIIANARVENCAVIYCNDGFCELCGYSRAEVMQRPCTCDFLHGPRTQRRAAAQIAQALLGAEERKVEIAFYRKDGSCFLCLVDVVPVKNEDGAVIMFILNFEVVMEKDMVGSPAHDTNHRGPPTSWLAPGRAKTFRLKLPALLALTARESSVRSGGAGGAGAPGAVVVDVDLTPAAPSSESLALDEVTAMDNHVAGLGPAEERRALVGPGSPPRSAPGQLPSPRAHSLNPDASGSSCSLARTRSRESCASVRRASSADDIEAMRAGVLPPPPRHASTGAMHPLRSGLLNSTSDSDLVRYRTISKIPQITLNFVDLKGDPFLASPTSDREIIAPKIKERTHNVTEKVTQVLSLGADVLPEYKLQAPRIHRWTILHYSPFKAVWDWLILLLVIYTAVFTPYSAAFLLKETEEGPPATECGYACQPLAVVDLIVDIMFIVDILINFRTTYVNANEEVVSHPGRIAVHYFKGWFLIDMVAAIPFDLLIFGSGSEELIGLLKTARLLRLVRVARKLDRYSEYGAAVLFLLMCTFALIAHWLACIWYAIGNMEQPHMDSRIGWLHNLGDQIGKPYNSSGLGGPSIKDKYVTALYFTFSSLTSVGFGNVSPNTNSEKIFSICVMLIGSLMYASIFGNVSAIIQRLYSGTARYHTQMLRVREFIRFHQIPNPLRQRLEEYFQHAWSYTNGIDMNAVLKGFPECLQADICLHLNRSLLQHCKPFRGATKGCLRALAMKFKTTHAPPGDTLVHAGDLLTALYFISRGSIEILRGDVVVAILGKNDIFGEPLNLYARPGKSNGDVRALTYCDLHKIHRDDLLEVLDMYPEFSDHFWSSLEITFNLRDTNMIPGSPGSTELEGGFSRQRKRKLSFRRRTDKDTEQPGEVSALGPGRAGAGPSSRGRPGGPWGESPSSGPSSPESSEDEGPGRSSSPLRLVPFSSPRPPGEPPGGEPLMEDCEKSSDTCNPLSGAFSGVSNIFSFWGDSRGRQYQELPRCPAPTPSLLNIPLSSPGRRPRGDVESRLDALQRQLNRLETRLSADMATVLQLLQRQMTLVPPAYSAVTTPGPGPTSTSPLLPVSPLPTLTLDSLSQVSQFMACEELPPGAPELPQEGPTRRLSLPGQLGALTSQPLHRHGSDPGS

`Cn1ncc(Br)c1-c1cc(Nc2ncc(C(F)(F)F)cc2F)ccc1OCCO` [Compound I-006] showed an IC50 in test [1] above 52000 nM. Besides, the Ki in test [2] worked out at 0.271 nM.
Take `Cc1cnn(C)c1-c1cc(Nc2ncc(C(F)(F)F)cc2F)ccc1OCCO` [Compound I-008]: in test [2], the Ki was determined as 0.822 nM.
In test [1], `Cn1ncc(F)c1-c1cc(Nc2ncc(C(F)(F)F)cc2F)cnc1OCCO` [Compound I-127] yielded an IC50 above 52000 nM. Further, the Ki in test [2] stood at 3.47 nM.
The compound `COCc1nc(C)c(-c2cc(Nc3ncc(OC(F)(F)F)cc3Cl)ncc2OCCO)c(C)n1` [Compound I-200] had a half-inhibitory concentration (IC50) in test [1] above 52000 nM.

In general, IC50 refers to the concentration that inhibits the measured activity by half. Read a high IC50 as lower potency. By Ki is commonly meant a dissociation constant, usually derived from enzyme kinetics or from competition with a known ligand.
